These are literature values, as cited in patent publication US3995028A, “Antibiotic OS-3256-B” (The Kitasato Institute, priority 1975, dated 1976).

This series relates to animal tumors such as leukemia L-1210, Sarcoma-180 and Hela cells.

For the compound `C[C@H](N)C(=O)N[C@@H](CCC(=O)C=[N+]=[N-])C(=O)N[C@@H](CCC(=O)C=[N+]=[N-])C(=O)O` [Alazopeptin, L-alanyl-(6-diazo-5-oxo)-L-norleucyl-(6-diazo-5-oxo)-L-norleucine], the “inhibitory activity against animal tumors” value is reported as “inhibitory activity against animal tumors”.
